Experimental data taken from the NIST ThermoML archive (doi:10.1016/j.fluid.2006.12.012).

Assays:
[1] = 298.15 K; 101.33 kPa; Liquid; Pycnometric method
[2] = refractive index (Na D-line) (dimensionless); settings: 298.15 K; 101.33 kPa; Liquid; Standard Abbe refractometry
[3] = xn = mol fraction of the nth substance listed; settings: 303.15 K, 101 kPa, Liquid, Direct dilatometry
[4] = excess molar enthalpy (molar enthalpy of mixing); xn = mol fraction of the nth substance listed; settings: 298.15 K, 101 kPa, Liquid

CC(C)CO [2-methyl-1-propanol]
Settings	mass density [kg/m3]	refractive index
[1]	794.34	–
[2]	–	1.3939

CC(C)O [propan-2-ol]
Settings	mass density [kg/m3]	refractive index
[1]	776.88	–
[2]	–	1.375

CC(C)CCO [3-methylbutan-1-ol] + CN1CCCC1=O
Settings	excess molar enthalpy [kJ/mol]	excess molar volume [m3/mol]
[3], x2 = 0.0999	–	-7.8e-08
[3], x2 = 0.2737	–	-1.69e-07
[3], x2 = 0.3718	–	-1.97e-07
[3], x2 = 0.4155	–	-2.09e-07
[3], x2 = 0.5254	–	-2.01e-07
[3], x2 = 0.6399	–	-1.76e-07
[3], x2 = 0.7034	–	-1.49e-07
[3], x2 = 0.8699	–	-7.3e-08
[3], x2 = 0.9384	–	-3.6e-08
[4], x2 = 0.0777	0.165	–
[4], x2 = 0.149	0.304	–
[4], x2 = 0.2286	0.421	–
[4], x2 = 0.3011	0.468	–
[4], x2 = 0.3692	0.502	–
[4], x2 = 0.4301	0.497	–
[4], x2 = 0.4847	0.485	–
[4], x2 = 0.5348	0.471	–
[4], x2 = 0.5484	0.479	–
[4], x2 = 0.5792	0.451	–
[4], x2 = 0.6031	0.432	–
[4], x2 = 0.6712	0.378	–
[4], x2 = 0.744	0.326	–
[4], x2 = 0.8153	0.257	–
[4], x2 = 0.8821	0.174	–
[4], x2 = 0.9444	0.0886	–

CN1CCCC1=O [N-methylpyrrolidone] + CC(C)O
Settings	excess molar enthalpy [kJ/mol]	excess molar volume [m3/mol]
[3], x1 = 0.1498	–	-5.2e-08
[3], x1 = 0.2066	–	-7.8e-08
[3], x1 = 0.3202	–	-1.29e-07
[3], x1 = 0.4317	–	-1.57e-07
[3], x1 = 0.5027	–	-1.62e-07
[3], x1 = 0.5854	–	-1.66e-07
[3], x1 = 0.7216	–	-1.42e-07
[3], x1 = 0.8148	–	-1.06e-07
[3], x1 = 0.9062	–	-5.8e-08
[4], x1 = 0.0516	0.296	–
[4], x1 = 0.1082	0.573	–
[4], x1 = 0.1702	0.797	–
[4], x1 = 0.2279	0.932	–
[4], x1 = 0.2894	1	–
[4], x1 = 0.3471	1.04	–
[4], x1 = 0.4059	1.03	–
[4], x1 = 0.4562	0.994	–
[4], x1 = 0.595	0.73	–
[4], x1 = 0.6888	0.614	–
[4], x1 = 0.7874	0.474	–
[4], x1 = 0.892	0.271	–

CC(C)(C)O [2-methylpropan-2-ol] + CN1CCCC1=O
Settings	excess molar enthalpy [kJ/mol]	excess molar volume [m3/mol]
[3], x2 = 0.1121	–	-3.2e-08
[3], x2 = 0.2423	–	-8.4e-08
[3], x2 = 0.3215	–	-1.16e-07
[3], x2 = 0.4128	–	-1.36e-07
[3], x2 = 0.4601	–	-1.52e-07
[3], x2 = 0.5403	–	-1.48e-07
[3], x2 = 0.6359	–	-1.42e-07
[3], x2 = 0.7246	–	-1.18e-07
[3], x2 = 0.8032	–	-9e-08
[3], x2 = 0.8404	–	-6.4e-08
[3], x2 = 0.9238	–	-2.6e-08
[4], x2 = 0.0634	0.0932	–
[4], x2 = 0.1313	0.25	–
[4], x2 = 0.2034	0.393	–
[4], x2 = 0.2666	0.489	–
[4], x2 = 0.3319	0.565	–
[4], x2 = 0.3942	0.607	–
[4], x2 = 0.4382	0.595	–
[4], x2 = 0.4828	0.587	–
[4], x2 = 0.5381	0.574	–
[4], x2 = 0.6026	0.534	–
[4], x2 = 0.6733	0.471	–
[4], x2 = 0.7442	0.406	–
[4], x2 = 0.829	0.277	–
[4], x2 = 0.9194	0.143	–

CC(C)(C)O [2-methylpropan-2-ol]
Settings	mass density [kg/m3]	refractive index
[1]	776.16	–
[2]	–	1.3851

CC(C)CCO [3-methylbutan-1-ol]
Settings	mass density [kg/m3]	refractive index
[1]	801.76	–
[2]	–	1.4053

CC(C)CO [2-methyl-1-propanol] + CN1CCCC1=O
Settings	excess molar enthalpy [kJ/mol]	excess molar volume [m3/mol]
[3], x2 = 0.1356	–	-9.8e-08
[3], x2 = 0.2201	–	-1.47e-07
[3], x2 = 0.2921	–	-1.74e-07
[3], x2 = 0.4102	–	-2.06e-07
[3], x2 = 0.5144	–	-2.26e-07
[3], x2 = 0.5994	–	-2.32e-07
[3], x2 = 0.6915	–	-2.21e-07
[3], x2 = 0.8044	–	-1.86e-07
[3], x2 = 0.9237	–	-9.6e-08
[4], x2 = 0.051	0.153	–
[4], x2 = 0.1288	0.274	–
[4], x2 = 0.2035	0.356	–
[4], x2 = 0.2736	0.393	–
[4], x2 = 0.3385	0.4	–
[4], x2 = 0.3939	0.393	–
[4], x2 = 0.4477	0.377	–
[4], x2 = 0.4974	0.361	–
[4], x2 = 0.543	0.342	–
[4], x2 = 0.6198	0.27	–
[4], x2 = 0.6816	0.245	–
[4], x2 = 0.748	0.219	–
[4], x2 = 0.8179	0.199	–
[4], x2 = 0.8911	0.148	–
[4], x2 = 0.9686	0.0938	–

CCC(C)O (stereo not given) [butan-2-ol]
Settings	mass density [kg/m3]	refractive index
[1]	798.92	–
[2]	–	1.3954

CN1CCCC1=O [N-methylpyrrolidone] + CCC(C)O
Settings	excess molar enthalpy [kJ/mol]	excess molar volume [m3/mol]
[3], x1 = 0.1046	–	-6.5e-08
[3], x1 = 0.1831	–	-1.26e-07
[3], x1 = 0.249	–	-1.62e-07
[3], x1 = 0.3096	–	-1.93e-07
[3], x1 = 0.3777	–	-2.19e-07
[3], x1 = 0.4817	–	-2.38e-07
[3], x1 = 0.5739	–	-2.3e-07
[3], x1 = 0.6355	–	-2.16e-07
[3], x1 = 0.7494	–	-1.64e-07
[3], x1 = 0.8086	–	-1.36e-07
[3], x1 = 0.9142	–	-6.4e-08
[4], x1 = 0.0691	0.173	–
[4], x1 = 0.1595	0.392	–
[4], x1 = 0.2388	0.517	–
[4], x1 = 0.3106	0.561	–
[4], x1 = 0.3733	0.584	–
[4], x1 = 0.4822	0.571	–
[4], x1 = 0.5305	0.55	–
[4], x1 = 0.5614	0.517	–
[4], x1 = 0.6341	0.457	–
[4], x1 = 0.7217	0.365	–
[4], x1 = 0.8176	0.25	–
[4], x1 = 0.9067	0.137	–

CN1CCCC1=O [N-methylpyrrolidone]
Settings	mass density [kg/m3]	refractive index
[1]	1023.4	–
[2]	–	1.4674
